Results as given in ChEMBL document CHEMBL5579878, “Allosteric Activation of Protein Phosphatase 5 with Small Molecules” (J Med Chem, 2024).
Numbering of substitutions follows the chain as printed. Calls of active or inactive are those of the source. No cut-off for these calls is given here.

Experiments:
[1] = molecular target: T1, Tyrosine-protein phosphatase non-receptor type 11 (Homo sapiens) (UniProt Q06124); experiment: Inhibition of SHP2 (unknown origin) using DiFMUP as substrate at 0.01 to 1000 uM; conditions: dose 0.01-1000 µM
T1 sequence (whole entry): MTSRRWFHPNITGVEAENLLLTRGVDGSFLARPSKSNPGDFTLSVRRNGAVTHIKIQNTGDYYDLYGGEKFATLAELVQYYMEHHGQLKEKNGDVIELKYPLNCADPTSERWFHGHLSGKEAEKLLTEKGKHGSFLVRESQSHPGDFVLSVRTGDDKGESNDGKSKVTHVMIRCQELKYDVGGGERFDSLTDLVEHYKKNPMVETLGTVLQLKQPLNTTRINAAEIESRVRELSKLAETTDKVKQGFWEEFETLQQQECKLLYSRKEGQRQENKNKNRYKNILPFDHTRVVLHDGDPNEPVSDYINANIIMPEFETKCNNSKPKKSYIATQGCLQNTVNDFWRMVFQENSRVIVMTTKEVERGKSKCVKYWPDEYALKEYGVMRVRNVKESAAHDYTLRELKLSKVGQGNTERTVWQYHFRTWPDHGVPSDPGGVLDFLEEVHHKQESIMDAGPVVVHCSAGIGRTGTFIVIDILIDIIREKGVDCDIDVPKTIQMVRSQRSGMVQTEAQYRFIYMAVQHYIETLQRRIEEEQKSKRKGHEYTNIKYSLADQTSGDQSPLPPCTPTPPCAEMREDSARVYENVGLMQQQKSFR

Homo sapiens = organism: Homo sapiens; experiment: Inhibition of PP2A (unknown origin) using DiFMUP as substrate at 0.01 to 1000 uM; conditions: dose 0.01-1000 µM
HCT-116 [2] = experiment: Downregulation of AT13387-induced HSP27 mRNA expression in human HCT-116 cells at 50 uM incubated for 24 hrs by qRT-PCR analysis; format: functional, cell-based
[3] = molecular target: T2, Hsp90 co-chaperone Cdc37 (Homo sapiens) (UniProt Q16543); experiment: Induction of CDC37 dephosphorylation at S13 residue in PP5-KO human HCT-116 cells upto 100 uM incubated for 24 hrs by Western blot analysis; format: cell-based
T2 sequence (whole entry): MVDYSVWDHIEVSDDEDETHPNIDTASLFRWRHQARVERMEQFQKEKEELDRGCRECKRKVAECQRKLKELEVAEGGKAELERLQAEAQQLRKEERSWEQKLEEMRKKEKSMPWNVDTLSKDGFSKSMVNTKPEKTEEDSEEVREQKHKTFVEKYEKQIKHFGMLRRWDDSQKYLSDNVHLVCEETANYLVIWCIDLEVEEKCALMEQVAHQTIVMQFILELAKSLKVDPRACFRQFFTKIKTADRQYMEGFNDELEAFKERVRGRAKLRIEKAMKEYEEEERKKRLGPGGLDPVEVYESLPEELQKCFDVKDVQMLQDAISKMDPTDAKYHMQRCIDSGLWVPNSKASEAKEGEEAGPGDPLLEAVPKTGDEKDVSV

HCT-116 [4] = experiment: Enhancement of HSP90 inhibitor AT13387-induced antiproliferative activity against human HCT-116 cells assessed as HSP90 inhibitor AT13387 IC50 at 50 uM incubated for 72 hrs by CCK8 assay (reference value: 78.49 nM); format: functional, cell-based; conditions: HCT-116, 72 h
[5] = test system: T3, Serine/threonine-protein phosphatase 5 (Homo sapiens), P53041 [K430A]; experiment: Activation of PP5 K430A mutant (unknown origin) using pNPP as substrate assessed as increase in phosphatase activity at 10 to 200 uM incubated for 30 mins by spectrophotometric analysis; conditions: dose 10-200 µM
T3 sequence (whole entry): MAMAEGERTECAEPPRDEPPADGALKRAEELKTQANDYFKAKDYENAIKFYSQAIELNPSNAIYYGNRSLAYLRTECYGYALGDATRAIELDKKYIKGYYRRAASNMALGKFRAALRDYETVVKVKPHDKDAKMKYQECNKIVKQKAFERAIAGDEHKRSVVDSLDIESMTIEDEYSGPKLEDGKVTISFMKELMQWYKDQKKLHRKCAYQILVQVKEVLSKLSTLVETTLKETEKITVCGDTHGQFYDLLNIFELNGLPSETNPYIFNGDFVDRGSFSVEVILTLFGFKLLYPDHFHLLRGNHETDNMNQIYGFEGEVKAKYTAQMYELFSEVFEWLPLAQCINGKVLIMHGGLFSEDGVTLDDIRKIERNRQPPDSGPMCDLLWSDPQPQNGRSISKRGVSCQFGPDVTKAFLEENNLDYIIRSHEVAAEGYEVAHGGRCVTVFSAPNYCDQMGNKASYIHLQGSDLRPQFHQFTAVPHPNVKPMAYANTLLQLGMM

[6] = molecular target: T4, Serine/threonine-protein phosphatase 5 (Homo sapiens) (UniProt P53041); experiment: Activation of PP5 in human HCT-116 cells assessed as decrease in intracellular S13 residue phosphorylated CDC37 level incubated for 24 hrs by Western blot analysis; format: cell-based; conditions: filed as activator, dose <= 100.0 µM
T4 sequence (whole entry): T3 sequence (whole entry) with A430K

HCT-116 [7] = experiment: Downregulation of AT13387-induced HSP70 expression in human HCT-116 cells at 50 uM incubated for 24 hrs by Western blot analysis; format: functional, cell-based
HCT-116 [8] = experiment: Downregulation of AT13387-induced HSP70 expression in PP5 Knockout human HCT-116 cells at 50 uM incubated for 24 hrs by Western blot analysis; format: functional, cell-based
HCT-116 [9] = experiment: Antitumor activity against human HCT-116 cells xenografted in BALB/c nude mouse assessed as decrease in AT13387-induced HSP40 protein expression in tumor at 30 to 60 mg/kg, ip administered every other day for 14 days by Western blot analysis; format: functional, organism-based; conditions: dose 30-60 mg/kg, time 14.0 day
[10] = molecular target: T5, Serine/threonine-protein phosphatase 5 (Homo sapiens, UniProt P53041); experiment: Activation of His-tagged human PP5 extracted from Escherichia coli BL21 using pNPP as substrate assessed as increase in phosphatase activity incubated for 30 mins by spectrophotometric analysis
T5 sequence (P53041 whole entry): T3 sequence (whole entry) with A430K

For `N=c1oc2cc(F)cc(F)c2cc1C(N)=S`, the inhibition [1] was “inactive”, the inhibition (Homo sapiens) was “inactive” and the Activity (HCT-116 [2]) was “Active”. The Activity [3] was “inactive”, the IC50 (HCT-116 [4]) was 0.0408 µM and the Activity [5] was “inactive”. The Activity [6] was “Dose-Dependent Effect”, the Activity (HCT-116 [7]) was “Active” and the Activity (HCT-116 [8]) was “inactive”. The Activity (HCT-116 [9]) was “Active” and the EC50 [10] was 52.8 µM.
